For series [1], the system named is HEK293 cells. As to the kind of experiment: In vitro splicing of endogenous transcripts (qRT-PCR, RT-PCR) in HEK293. The format is cell-based. As for the experimental part: (§1) For qRT-PCR analysis of relative total mRNA expression levels or splice isoform-specific expression analyses, cDNA was synthesized using 50 ng-1 pg of template RNA in 20 μL reaction volumes using the First-Strand SUPERSCRIPT™ III Reverse Transcriptase Supermix (Life Technologies) followed by incubation with RNase H according to the manufacturer's protocol and as described previously. All cDNA products were stored at −20° C. Splice isoform-specific primers for PTK2B-202 were designed to bind to unique exon junctions for this transcript, which lacks exon 24. […] For standard qRT-PCR, human HPRT mRNA transcript levels were used to normalize Ct values obtained for each gene, and relative expression levels were calculated using the 2^−ddCt method. […]
as §1, with “[…]” for “pg”, “[…]” for “μL”, “previously (Abrahamsson et al., 2009; Crews et al., 2015).” for “previously. All cDNA products were stored at −20° C. Splice isoform-specific primers for PTK2B-202 were designed to bind to unique exon junctions for this transcript, which lacks exon 24.”, “2-ddCt” for “2^−ddCt”
Background: Real-time PCR tracks product formation cycle by cycle.

The nature of series [2]: Mouse weights over the two-week treatment period (tolerability). The format is in vivo. The settings on record: 5-10 mg/kg intravenously, three doses over two weeks. As for the experimental part: For in vivo treatments, a 10 mg/mL stock solution of 17S-FD-895 solubilized in DMSO was used. After randomization, AML-engrafted mice were dosed intravenously with 17S-FD-895 (5-10 mg/kg) or vehicle (for AML-08, vehicle control=15% DMSO in PBS; for AML-37, vehicle control=20% DMSO in PBS) three times over a two-week period, with the first dose given on day 1, the second on day 7, and the third on day 14. For preparation of RNA from human LSC-enriched populations, single cell suspensions from spleen and bone marrow were CD34 double-selected (over two LS selection columns, Miltenyi) and 1-2×10^5 cells were collected in lysis buffer or pooled according to treatment group for serial transplantation assays.
All animal studies were performed in accordance with UCSD and NIH-equivalent ethical guidelines and were approved by the Institutional Animal Care and Use Committee. Three AML PRIMAGRAFT™ models were established from AML LSC-enriched cell fractions (1-2×10^5 CD34^+ cells) transplanted intrahepatically into neonatal Rag2^−/−γc^−/− as previously described (Abrahamsson et al., 2009), or intravenously into sublethally irradiated adult (6-8 weeks old) NOD/SCID-IL2RG mice (NSGS, Jackson Laboratory). […] After treatment, hematopoietic tissues were analyzed as described following. […]

The conditions of series [3]: Villa et al., Org Lett 2012; cited from earlier work.

For the compound `CC[C@H](OC)[C@@H](C)[C@H]1O[C@@H]1[C@@H](O)[C@H](C)/C=C/C=C(\C)[C@H]1OC(=O)C[C@H](O)CC[C@@](C)(O)[C@@H](OC(C)=O)/C=C/[C@@H]1C` (stereo in doubt) [Formula 17S-FD-895, 17S-FD-895], in series [1] (HEK293, 0.01-10 μM, 4 hrs), the “MCL1-S expression (qRT-PCR)” value is recorded as “low doses of 17S-FD-895 increased MCL1-S expression, this effect was reversed at high doses”. Moreover, the “DNAJB1 intron 2 levels” value in series [1] (HEK293 cells, compared with MOLM-13) is recorded as “to a lesser extent”. Also, the “tolerability / weight changes” value in series [2] is given as “well tolerated, with no significant weight changes detected”. Further, the “activity over FD-895” value in series [3] is on record as 25 fold.

Source of the values: US10675267B2, “Methods for detection and eradication of myeloid leukemia stem cells” (priority 2015, dated 2020).
